Source: patent publication US20060058286A1, “Methods of treating HIV infection” (priority 2004, published 2006)

How the values were obtained:
HIV-1 NL4-3 [1] = assay: microbe, parasite or virus in culture; conditions: Human immunodeficiency virus 1, NL43, MT2, 120 h
Protocol: (§1) Virus and cell lines. The T-cell line, MT-2 was obtained through the AIDS Research and Reference Reagent Program, NIAID and was contributed by Dr. D. Richman. The cell line was cultured in RPMI 1640 medium supplemented with 10% fetal bovine serum, 2 mM L-glutamine and sub-cultured twice a week. The NL4-3 strain of HIV-1 was obtained from the AIDS Research and Reference Reagent Program. Both virus stocks were amplified and titered in MT-2 cells using a virus infectivity assay.
(§2) Drug Susceptibility and Cytotoxicity Assays. For drug susceptibility assays, MT-2 cells were infected with HIV-1 NL4-3 at an MOI of 0.001, and seeded into 96-well microtiter plates (2.5×10^5 cells/ml) containing serial dilutions of test compounds. […] Each drug ratio consisted of an array of 3-fold serial dilutions, and was performed in quadruplicate. The plates were incubated at 37° C./5% CO2. The MT-2 cells infected with HIV-1 NL4-3 were incubated for 5 days. On day-five post-infection, 20 μl from each well was harvested and quantitated by a reverse transcriptase (RT) assay or an MTS assay. Cytotoxicity assays were performed using uninfected cells, exposed to the same drug combinations, and incubated for five days. Cell viability was determined by an XTT assay. The CC50 values were calculated by using the exponential form of the median effect equation as mentioned below for calculation of EC50.
(§3) In this equation, Fa stands for “fraction affected,” and represents the fraction of the viral load that has been inactivated.
In carrying out the combination experiments below, the EC50 for Compound 1 and each comparator compound was determined during the course of each study, and used in the subsequent data analysis.

HIV-1 NL4-3 [2] = assay: Two-drug combination study with Compound 1 (combination indices); type: cell-based; conditions: for Combination Indices at 50% HIV Inhibition (Confidence Interval) / Combination Indices at 75% HIV Inhibition (Confidence Interval) / Combination Indices at 90% HIV Inhibition (Confidence Interval): 95% CI in parentheses; for Overall Result: overall antiviral effect of the two-drug combination with Compound 1, all ratios and effective levels
Protocol: as §1, §2
Analysis of Drug Combination Effects. For determination of CI values, drugs were diluted in a fixed ratio and multiple ratios were analyzed. The drug serial dilutions spanned a range of concentrations near the EC50 value of each compound, so that equivalent antiviral activities could be compared. Concentration-response curves were estimated for each individual drug and every combination using the median-effect equation. The equation was fit using a nonlinear regression routine (Proc Nlin) in PC SAS version 8.01 (SAS Institute Inc., SAS Version 8.01, Cary, N.C.: SAS Institute Inc., 1990).
as §3
To assess antiviral effects of different drug combination treatments, combination indices (CIs) were calculated according to Chou and Rideout. The combination index was computed as CI=[D]1/[Dm]1+[D]2/[Dm]2
In this equation [Dm]1 and [Dm]2 are the concentrations of drugs that would individually produce a specific level of effect, while [D]1 and [D]2 are the concentrations of drugs in combination that would produce the same level of effect.
Theoretically, additivity is implied if the CI is equal to one, synergy if the CI is less than one, and antagonism if the CI is greater than one. […] At best, we can construct a range that contains the likely values for the CI, given the noise in the data. In this report, these ranges are reported in parentheses next to each point estimate of the CI. […] If the range fell entirely above 1.0, we would infer antagonistic behavior. If the range were to include 1.0, we would infer additivity.

[3] = combination with Compound 1, EC50 ratio 1:1 (Compound 1:comparator)
[4] = combination with Compound 1, EC50 ratio 1:2.5 (Compound 1:comparator)
[5] = combination with Compound 1, EC50 ratio 2.5:1 (Compound 1:comparator)

Row | Compound | EC50 (HIV-1 NL4-3 [1]) | combination effect at the 50% effective level (HIV-1 NL4-3 [2]; combination with Compound 1) | combination effect at the 75% and 90% effective levels (HIV-1 NL4-3 [2]; combination with Compound 1) | Combination Indices at 50% HIV Inhibition (Confidence Interval) (HIV-1 NL4-3 [2]; [3]) | Combination Indices at 75% HIV Inhibition (Confidence Interval) (HIV-1 NL4-3 [2]; [3]) | Combination Indices at 90% HIV Inhibition (Confidence Interval) (HIV-1 NL4-3 [2]; [3]) | Combination Indices at 50% HIV Inhibition (Confidence Interval) (HIV-1 NL4-3 [2]; [4]) | Combination Indices at 75% HIV Inhibition (Confidence Interval) (HIV-1 NL4-3 [2]; [4]) | Combination Indices at 90% HIV Inhibition (Confidence Interval) (HIV-1 NL4-3 [2]; [4]) | Combination Indices at 50% HIV Inhibition (Confidence Interval) (HIV-1 NL4-3 [2]; [5]) | Combination Indices at 75% HIV Inhibition (Confidence Interval) (HIV-1 NL4-3 [2]; [5]) | Combination Indices at 90% HIV Inhibition (Confidence Interval) (HIV-1 NL4-3 [2]; [5]) | Overall Result (HIV-1 NL4-3 [2]) | Overall Result (HIV-1 NL4-3 [2]; listed as atazanavir) | Overall Result (HIV-1 NL4-3 [2]; listed as emtricitibine) | Overall Result (HIV-1 NL4-3 [2]; listed as efavirenz)
1 | Nc1nc(NC2CC2)c2ncn([C@H]3C=C[C@@H](CO)C3)c2n1 [Abacavir, abacavir] | 0.74 µM | synergy | additivity | 0.66 (0.48, 0.84) | 0.89 (0.55, 1.91) | 1.20 (0.48, 1.91) | 0.58 (0.45, 0.71) | 0.92 (0.62, 1.21) | 1.46 (0.72, 2.20) | 0.65 (0.44, 0.86) | 0.88 (0.49, 1.28) | 1.20 (0.36, 2.05) | Additive |  |  | 
2 | COC(=O)N[C@H](C(=O)N[C@@H](Cc1ccccc1)[C@@H](O)CN(Cc1ccc(-c2ccccn2)cc1)NC(=O)[C@@H](NC(=O)OC)C(C)(C)C)C(C)(C)C [Atazanavir, atazanavir] | 0.009 µM |  |  | 0.64 (0.54, 0.73) | 0.60 (0.49, 0.72) | 0.59 (0.43, 0.75) | 0.91 (0.81, 1.20) | 0.90 (0.70 1.10) | 0.90 (0.57, 1.23) | 1.01 (0.80, 1.19) | 1.02 (0.77, 1.28) | 1.09 (0.67, 1.50) | Additive- | additive to synergistic |  | 
3 | CON(Cc1ccc(F)cc1)C(=O)/C=C(\O)C(=O)O [Compound 1, (Z)-3-[(4-Fluoro-benzyl)-methoxy-carbamoyl]-2-hydroxy-acrylic acid] | 0.155 µM |  |  |  |  |  |  |  |  |  |  |  | synergistic or additive-synergistic |  |  | 
4 | Nc1nc(=O)n([C@@H]2CS[C@H](CO)O2)cc1F [Emtricitabine, emtricitabine] | 0.11 µM |  |  | 0.52 (0.44, 0.59) | 0.40 (0.32, 0.48) | 0.32 (0.22, 0.41) | 0.74 (0.63, 0.84) | 0.64 (0.52, 0.77) | 0.57 (0.39, 0.75) | 0.49 (0.42, 0.56) | 0.34 (0.28, 0.41) | 0.25 (0.17, 0.33) | Synergistic |  | synergistic | 
5 | O=C1Nc2ccc(Cl)cc2[C@@](C#CC2CC2)(C(F)(F)F)O1 [Efavirenz, efavirenz] | 0.0015 µM |  |  | 0.57 (0.44, 0.70) | 0.56 (0.38, 0.74) | 0.56 (0.28, 0.84) | 0.49 (0.36, 0.62) | 0.54 (0.34, 0.75) | 0.61 (0.26, 0.97) | 0.60 (0.45, 0.74) | 0.51 (0.33, 0.68) | 0.43 (0.20, 0.67) | Synergistic |  |  | strong synergistic effects
